The results in this text go back to patent US11370774B2, “Substituted benzofuran, benzopyrrole, benzothiophene, and structurally related complement inhibitors” (BioCryst Pharmaceuticals, Inc., priority 2018, dated 2022).

Factor D, sequence (P00746 26-253): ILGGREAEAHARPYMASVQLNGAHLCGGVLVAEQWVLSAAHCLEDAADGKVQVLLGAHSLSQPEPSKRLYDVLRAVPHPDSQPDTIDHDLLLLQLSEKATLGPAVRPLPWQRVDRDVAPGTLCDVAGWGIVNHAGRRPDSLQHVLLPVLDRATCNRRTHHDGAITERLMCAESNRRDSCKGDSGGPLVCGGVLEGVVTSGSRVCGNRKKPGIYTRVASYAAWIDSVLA

The assay deals with Factor D (Homo sapiens (Human), UniProt P00746). The assay can be described thus: Factor D esterolytic assay (Z-Lys-SBzl substrate, DTNB, 405 nm). The class given is biochemical. Conditions: Z-Lys-SBzl 1.29 mM, pH 7.5, 10% DMSO, tested a minimum of three times, read-out: Measured Ki (IC50) Value for Compounds: IC50. The essentials:
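Thioester hydrolysis (Z-Lys-SBzl, 1.29 mM) by human Factor D ([…]) detected through DTNB color at 405 nm over 600 sec, minus 690 nm background. Buffer: 100 mM HEPES pH 7.5, 500 mM NaCl, 10% DMSO; optional room-temperature preincubation before substrate. IC50 derived from percent rate inhibition; at least three runs.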
One may read the IC50 as the concentration that inhibits the measured activity by half. In the case of `NCc1cccc(-c2cc(COc3ccccc3CC(=O)O)cc3nn(CC4CC4)cc23)c1F` [Compound 164e, 2-(2-((4-(3-(aminomethyl)-2-fluorophenyl)-2-(cyclopropylmethyl)-2H-indazol-6-yl)methoxy)phenyl)acetic acid], the IC50 was less than 1000 nM.

Take `Cc1cccc(CC(=O)O)c1NC(=O)c1cc(-c2cccc(CN)c2)c2occc2c1` [Compound 165f, 2-(2-(7-(3-(aminomethyl)phenyl)benzofuran-5-carboxamido)-3-methylphenyl)acetic acid]: the IC50 is less than 1000 nM.

With `NCc1cccc(-c2cc(COc3ccccc3CC(=O)O)cc3nc[nH]c23)c1` [Compound 167e, 2-(2-((7-(3-(aminomethyl)phenyl)-1H-benzo[d]imidazol-5-yl)methoxy)phenyl)acetic acid], the IC50 is less than 1000 nM.

As to `NCc1cc(-c2cc(COc3ccccc3CC(=O)O)nc3ccoc23)ccn1` [Compound 168c, 2-(2-((7-(2-(aminomethyl)pyridin-4-yl)furo[3,2-b]pyridin-5-yl)methoxy)phenyl)acetic acid], the IC50 was less than 1000 nM.

`NCc1cccc(-c2cc(COc3ccccc3CC(=O)O)cc3cc(Cl)oc23)c1` [Compound 169f, 2-(2-((7-(3-(aminomethyl)phenyl)-2-chlorobenzofuran-5-yl)methoxy)phenyl)acetic acid]: the IC50 is less than 1000 nM.

Turning to `NCc1nccc(-c2cc(COc3ccccc3CC(=O)O)cc3c2ccn3CC2CC2)c1F` [Compound 170b, 2-(2-((4-(2-(aminomethyl)-3-fluoropyridin-4-yl)-1-(cyclopropylmethyl)-1H-indol-6-yl)methoxy)phenyl)acetic acid], the IC50 was less than 1000 nM.

Take `NCc1nccc(-c2cc(COc3ccccc3CC(=O)O)c(F)c3ccoc23)c1F` [Compound 171c, 2-(2-((7-(2-(aminomethyl)-3-fluoropyridin-4-yl)-4-fluorobenzofuran-5-yl)methoxy)phenyl)acetic acid]: the IC50 is less than 1000 nM.

For the compound `NCc1cc(-c2cc(COc3ccccc3CC(=O)O)c(F)c3ccoc23)ccn1` [Compound 172b, 2-(2-((7-(2-(aminomethyl)pyridin-4-yl)-4-fluorobenzofuran-5-yl)methoxy)phenyl)acetic acid], the IC50 is less than 1000 nM.

As to `NCc1cccc(-c2cc(COc3ccccc3CC(=O)O)cc3c(C(F)(F)F)coc23)c1F` [Compound 173b, 2-(2-((7-(3-(aminomethyl)-2-fluorophenyl)-3-(trifluoromethyl)benzofuran-5-yl)methoxy)phenyl)acetic acid], the IC50 was less than 1000 nM.

For the compound `NCc1nccc(-c2cc(COc3ccccc3CC(=O)O)cc3occc23)c1F` [Compound 174c, 2-(2-((4-(2-(aminomethyl)-3-fluoropyridin-4-yl)benzofuran-6-yl)methoxy)phenyl)acetic acid], the IC50 is less than 1000 nM.

In the case of `NCc1cc(-c2cc(COc3ccccc3CC(=O)O)cc3c(C(F)(F)F)coc23)ccn1` [Compound 175c, 2-(2-((7-(2-(aminomethyl)pyridin-4-yl)-3-(trifluoromethyl)benzofuran-5-yl)methoxy)phenyl)acetic acid], the IC50 is less than 1000 nM.

Regarding `Nc1n[nH]c2c(-c3cc(COc4ccccc4CC(=O)O)cc4ccoc34)cccc12` [Compound 176c, 2-(2-((7-(3-amino-1H-indazol-7-yl)benzofuran-5-yl)methoxy)phenyl)acetic acid], the IC50 lay in the range of 1000 to 10000 nM.

Turning to `NCc1cccc(-c2cc(COc3ccccc3CC(=O)O)cc3c2CCC3)c1` [Compound 177f, 2-(2-((7-(3-(aminomethyl)phenyl)-2,3-dihydro-1H-inden-5-yl)methoxy)phenyl)acetic acid], the IC50 is less than 1000 nM.

For `NCc1cccc(-c2cc(COc3ccccc3CC(=O)O)cc3cc(CCO)oc23)c1` [Compound 178g, 2-(2-((7-(3-(aminomethyl)phenyl)-2-(2-hydroxyethyl)benzofuran-5-yl)methoxy)phenyl)acetic acid], the half-inhibitory concentration (IC50) is less than 1000 nM.

In the case of `NCc1cccc(-c2cc(COc3ccccc3CC(=O)O)cc3cc(CCO)oc23)c1F` [Compound 179b, 2-(2-((7-(3-(aminomethyl)-2-fluorophenyl)-2-(2-hydroxyethyl)benzofuran-5-yl)methoxy)phenyl)acetic acid], the IC50 was less than 1000 nM.

As for `Nc1noc2c(-c3cc(COc4ccccc4CC(=O)O)cc4ccoc34)cccc12` [Compound 180e, 2-(2-((7-(3-aminobenzo[d]isoxazol-7-yl)benzofuran-5-yl)methoxy)phenyl)acetic acid], the IC50 is less than 1000 nM.

For `NCc1nccc(-c2cc(COc3ccccc3CC(=O)O)cc3c(C(F)(F)F)coc23)c1F` [Compound 181d, 2-(2-((7-(2-(aminomethyl)-3-fluoropyridin-4-yl)-3-(trifluoromethyl)benzofuran-5-yl)methoxy)phenyl)acetic acid], the IC50 is less than 1000 nM.

For `NCc1cccc(-c2cc(COc3cc(Br)ccc3CC(=O)O)cc3ccoc23)c1` [Compound 182d, 2-(2-((7-(3-(aminomethyl)phenyl)benzofuran-5-yl)methoxy)-4-bromophenyl)acetic acid], the IC50 was less than 1000 nM.

As to `Nc1ccc(-c2cc(COc3ccccc3CC(=O)O)cc3ccoc23)cc1` [Compound 183c, 2-(2-((7-(4-aminophenyl)benzofuran-5-yl)methoxy)phenyl)acetic acid], the IC50 was more than 10000 nM.

For `Nc1cccc(-c2cc(COc3ccccc3CC(=O)O)cc3ccoc23)c1` [Compound 184c, 2-(2-((7-(3-aminophenyl)benzofuran-5-yl)methoxy)phenyl)acetic acid], the IC50 is 1000 to 10000 nM.

As for `NCc1cc(-c2cc(COc3ccccc3CC(=O)O)cc3cc(CCO)oc23)ccn1` [Compound 185c, 2-(2-((7-(2-(aminomethyl)pyridin-4-yl)-2-(2-hydroxyethyl)benzofuran-5-yl)methoxy)phenyl)acetic acid], the IC50 was less than 1000 nM.

For `NC(CF)c1cccc(-c2cc(COc3ccccc3CC(=O)O)cc3ccoc23)c1` (centres unmarked) [Compound 186c, 2-(2-((7-(3-(1-amino-2-fluoroethyl)phenyl)benzofuran-5-yl)methoxy)phenyl)acetic acid], the IC50 was less than 1000 nM.

For the compound `CCCc1cc2cc(COc3ccccc3CC(=O)O)cc(-c3cccc(CN)c3)c2o1` [Compound 187f, 2-(2-((7-(3-(aminomethyl)phenyl)-2-propylbenzofuran-5-yl)methoxy)phenyl)acetic acid], the IC50 is less than 1000 nM.

On to `CCCc1cc2cc(COc3ccccc3CC(=O)O)cc(-c3cccc(CN)c3F)c2o1` [Compound 188b, 2-(2-((7-(3-(aminomethyl)-2-fluorophenyl)-2-propylbenzofuran-5-yl)methoxy)phenyl)acetic acid], for which the IC50 is less than 1000 nM.

As for `CCCc1cc2cc(COc3ccccc3CC(=O)O)cc(-c3ccnc(CN)c3)c2o1` [Compound 189c, 2-(2-((7-(2-(aminomethyl)pyridin-4-yl)-2-propylbenzofuran-5-yl)methoxy)phenyl)acetic acid], the IC50 is less than 1000 nM.

Turning to `CCCc1cc2cc(COc3ccccc3CC(=O)O)cc(-c3ccnc(CN)c3F)c2o1` [Compound 190c, 2-(2-((7-(2-(aminomethyl)-3-fluoropyridin-4-yl)-2-propylbenzofuran-5-yl)methoxy)phenyl)acetic acid], the IC50 is less than 1000 nM.

With `Cc1noc2c(-c3cccc(CN)c3)cc(COc3ccccc3CC(=O)O)cc12` [Compound 191h, 2-(2-((7-(3-(aminomethyl)phenyl)-3-methylbenzo[d]isoxazol-5-yl)methoxy)phenyl)acetic acid], the IC50 was less than 1000 nM.

As for `CS(=O)(=O)n1ccc2c(-c3cccc(CN)c3)cc(COc3ccccc3CC(=O)O)cc21` [Compound 192e, 2-(2-((4-(3-(aminomethyl)phenyl)-1-(methylsulfonyl)-1H-indol-6-yl)methoxy)phenyl)acetic acid], the IC50 is less than 1000 nM.

For `NCc1ccc(-c2cc(COc3ccccc3CC(=O)O)cc3ccoc23)cc1` [Compound 193c, 2-(2-((7-(4-(aminomethyl)phenyl)benzofuran-5-yl)methoxy)phenyl)acetic acid], the IC50 was in the range of 1000 to 10000 nM.

`NCc1cccc(-c2cc(COc3ccccc3CC(=O)O)cc3cc(CNCC4CCCNC4)oc23)c1` (centres unmarked) [Compound 194d, 2-(2-((7-(3-(aminomethyl)phenyl)-2-(((piperidin-3-ylmethyl)amino)methyl)benzofuran-5-yl)methoxy)phenyl)acetic acid]: the IC50 was less than 1000 nM.

With `NCCCNCc1cc2cc(COc3ccccc3CC(=O)O)cc(-c3cccc(CN)c3)c2o1` [Compound 195d, 2-(2-((7-(3-(aminomethyl)phenyl)-2-(((3-aminopropyl)amino)methyl)benzofuran-5-yl)methoxy)phenyl)acetic acid], the IC50 is less than 1000 nM.

As to `NCCNCc1cc2cc(COc3ccccc3CC(=O)O)cc(-c3cccc(CN)c3)c2o1` [Compound 196d, 2-(2-((2-(((2-aminoethyl)amino)methyl)-7-(3-(aminomethyl)phenyl)benzofuran-5-yl)methoxy)phenyl)acetic acid], the IC50 was less than 1000 nM.

As to `NCc1cccc(-c2cc(COc3cc(N)ccc3CC(=O)O)cc3ccoc23)c1` [Compound 197c, 2-(4-amino-2-((7-(3-(aminomethyl)phenyl)benzofuran-5-yl)methoxy)phenyl)acetic acid], the IC50 was less than 1000 nM.

On to `CS(=O)(=O)n1ccc2c(-c3cccc(CN)c3F)cc(COc3ccccc3CC(=O)O)cc21` [Compound 198b, 2-(2-((4-(3-(aminomethyl)-2-fluorophenyl)-1-(methylsulfonyl)-1H-indol-6-yl)methoxy)phenyl)acetic acid], for which the IC50 was less than 1000 nM.

For the compound `NCc1cccc(-c2cc(COc3ccccc3CC(=O)O)cc3cc(C(F)(F)F)oc23)c1` [Compound 199f, 2-(2-((7-(3-(aminomethyl)phenyl)-2-(trifluoromethyl)benzofuran-5-yl)methoxy)phenyl)acetic acid], the IC50 is less than 1000 nM.
